Data set [1] relates to PC3 (human prostate carcinoma) xenograft. Kind of data set: PC3 tumor xenograft in nude mice. In kind it is in vivo, Balb/c nude mice. Particulars: male nude mice, day 17, biweekly i.v. The method, then:
(§1) LoVo (4 × 10^6), PC3 (3 × 10^6) or MDA-MB-231 LNA DRE (10^6) cells were collected by trypsination and injected with 50 μl 1:1 PBS:Matrigel (v/v) subcutaneously on the right flank of 18 female (LoVo), 40 male (PC3) or into 4th mammary fat pad of 40 female (MDA231) Balb/c nude mice. Tumor growth was monitored and average tumor size at commencement of dosing was 100 mm^3. Mice were randomized into 3 arms of each 5 (LoVo), 10 (PC3) or 12 (MDA23) mice respectively and treatment with vehicle (saline), WEHI-7326 (biweekly) or docetaxel (weekly) was administered via tail vein injection. Tumor volumes were measured at least twice weekly with calipers and the experiments were terminated when tumors in the control group started exceeding 1500 mm^3. For LoVo, both vehicle and 25 mg/kg WEHI-7326 groups were harvested 24 h, but 20 mg/kg WEHI-7326 group harvested 1 h post final dose. For PC3, docetaxel group was not harvested in an attempt to grow out resistant tumors.

The subject of data set [2] is MDA-MB-231 LNA DRE (docetaxel resistant breast cancer) xenograft. As to the kind of experiment: Orthotopic MDA-MB-231 LNA-DRE xenograft. The data set is classed as in vivo, Balb/c nude mice. The conditions noted are these: docetaxel 10 mg/kg weekly i.v., WEHI-7326 30 mg/kg biweekly i.v. The method, then:
as §1

For the next data set, the system named is 24 T TNBC PDX. As to the kind of experiment: TNBC PDX model 24T. The data set is classed as in vivo, NOD-SCID-IL2Rγc–/– mice. As for the experimental part: (§2) Cohorts of about 30 female mice were seeded with thawed single cell suspensions of early passage human breast tumors (passage 2 or 3). Briefly, 150,000–250,000 cells were resuspended in 10 µl of transplantation buffer (50% fetal calf serum, 10% of a 0.04% trypan blue solution and 40% PBS) and growth-factor-reduced Matrigel [BD] at a ratio of 3:1, and injected into the cleared mammary fat pads of 3- or 4-week-old NOD-SCID-IL2Rγc–/– female mice. Mice were monitored for tumor development three times weekly and tumor size measured using digital Vernier calipers. Tumor volume was estimated by measuring the minimum and maximum tumor diameters using the formula: (minimum diameter)^2 x (maximum diameter)/2. Once tumors arose, mice were randomized into treatment arms. Treatment was initiated when the tumor volume reached 80–120 mm^3. Randomization and tumor measurements were managed using the Study Director software (v 3.0, studylog). Mice were sacrificed at the first measurement where tumor volume exceeded 600 mm^3, or if their health deteriorated for reasons other than disease progression or drug toxicity (censored event).
(§3) Mice were treated with either docetaxel (10 mg/kg; i.p.; once), cisplatin (4 mg/kg; i.p.; once) or WEHI-7326 (20 mg/kg; twice a week (Monday and Thursday); i.v.). Vehicle treated mice were administered with the vehicle for WEHI-7326. Docetaxel was resuspended at 2 mg/ml in PBS:Tween-80:ethanol = 90:5:5 (v/v/v). WEHI-7326 was resuspended at 2 mg/ml in saline.

Data set [3] concerns U87MG-(Δ2–7) (glioblastoma) xenograft. As to the kind of experiment: U87MG-(Δ2–7) tumor xenograft in nude mice. In kind it is in vivo, BALB/c nude mice. The conditions noted are these: U87MG-(Δ2–7) xenograft, i.p. three times weekly. As for the experimental part: (§4) Tumor cell lines LIM2537, U87MGΔ2–7EGFR or H1437 were collected by trypsinization, counted and injected at 5 × 10^6 cells/ site subcutaneously on both flanks of BALB/c nude mice. Treatment with vehicle control or WEHI-7326 at given dose was initiated after 5 days. Drug or vehicle (100 μl) was injected intraperitoneally three times weekly. Control group and treatment group consisted of 8 mice each. Tumors were measured twice weekly with calipers. Tumor volumes were estimated using the modified ellipsoid formula V = 1/2 (length × width^2). The experiments were terminated when tumors in the control group started ulcerating or exceeded 17 mm in length, in line with the LICR/DoS Animal Ethics Committee guidelines (11/05 A).

Another data set relates to 322 T TNBC PDX. As to the kind of experiment: TNBC PDX model 322T. In kind it is in vivo, NOD-SCID-IL2Rγc–/– mice. The method, then:
as §2, §3

In data set [4] the test system is H1437 (non-small cell lung carcinoma) xenograft. As to the kind of experiment: H1437 tumor xenograft in nude mice. The conditions noted are these: i.p. three times weekly. The data set is classed as in vivo, BALB/c nude mice. The method, then: as §4
Data set [5] deals with COG-N-440x neuroblastoma PDX. As to the kind of experiment: High-risk neuroblastoma PDX COG-N-440x. Particulars: COG-N-440x PDX; 20 mg/kg i.v. twice weekly. The data set is classed as in vivo, NSG mice. As for the experimental part: All animal studies were performed in accordance with the guidelines approved by University of New South Wales Animal Care and Ethics Committee (ACEC 17/53B) and in accordance with the requirements of the Australian Code for the Care and Use of Animals for Scientific Purposes. PDX models COG-N-440x and COG-N-496x were obtained from the Childhood Cancer Repository, Texas Tech University Health Sciences Center in Lubbock, TX, USA. 6–8 week old female NSG mice were engrafted by subcutaneous injection with 1 × 10^6 freshly thawed PDX tumor cells into one flank in a mixture of 100 μl RPMI-1640 and 100 μl Matrigel. Mice were monitored for tumor development three times weekly and tumor size measured using digital Vernier calipers. Treatments commenced when tumors reached 50 mm^3, following randomization into treatment arms. […] Mice were treated with either vincristine (0.5 mg/kg, once weekly i.p. in sterile saline for up to 5 weeks), WEHI-7326 (20 mg/kg; twice weekly i.v. in sterile saline for up to 5 weeks) or vehicle (as for WEHI-7326). For the Th-MYCN transgenic mouse model, spontaneous tumor growth in mice homozygous for the MYCN transgene was assessed by abdominal palpation at least twice a week. Treatments commenced once a small palpable tumor (~5 mm) was detected, following randomization to treatment arms. Mice were euthanized upon detection of an abdominal tumor of ~1 cm in diameter. […]

On to `COc1ccc(CNc2nc(NCc3ccc(CN)cc3)nc(NN3CC(=O)NC3=O)n2)cc1` [WEHI-7326], for which the “Tumor growth inhibition (TGI)” value in data set [1] was ~ 75%; in data set [2], 105%. Also, the “Adverse effects in treatment arm” value with 24 T TNBC PDX (24 T PDX mice, 20 mg/kg i.v. twice a week, n = 7) was 1 sick, 1 found dead, 1 with back leg paralysis; in the data set on 322 T TNBC PDX (322 T PDX mice, 20 mg/kg i.v. twice a week, n = 10) it was 1 sick, 1 found dead. The Survival time worked out at 45 days with 24 T TNBC PDX (24 T PDX, docetaxel 10 mg/kg i.p. once, WEHI-7326 20 mg/kg i.v. biweekly) and 18 days in the data set on 322 T TNBC PDX (322 T PDX, docetaxel 10 mg/kg i.p. once, WEHI-7326 20 mg/kg i.v. biweekly). Further, the Tumor growth result in data set [3] and in data set [4] was “effective in reducing tumor growth” each time. Further, the Median survival in data set [5] stood at 39 days.

Source of the values: paper PMC7955127, “Preclinical small molecule WEHI-7326 overcomes drug resistance and elicits response in patient-derived xenograft models of human treatment-refractory tumors” (Cell Death & Disease, 2021).
